Assay results from patent US12084453B2, “Bicyclic amines as CDK12 inhibitors” (Incyte Corporation, priority 2021, dated 2024).

Molecular target: T1, CDK12 complexed with Cyclin K (Homo sapiens, UniProt Q9NYV4)
T1 construct: GST (N); host or cells: baculovirus expression system
Test: CDK enzymatic assay (HTRF, LANCE Ultra kinase assay)
Assay type: biochemical
Conditions: 60 minutes pre-incubation with compound; 1 mM ATP
Procedure: The following activity of the CDK enzymes in complex with their respective cyclins we assayed: CDK1 complexed with Cyclin B1; CDK2 complexed with Cyclin E1; CDK4 complexed with Cyclin D1; CDK6 complexed with Cyclin D1; CDK6 complexed with Cyclin D3; CDK9 complexed with Cyclin T1; CDK7 complexed with Cyclin H/MAT1; CDK2 complexed with Cyclin A2; CDK5 complexed with p35; CDK12 complexed with Cyclin K; CDK13 complexed with Cyclin K. These in vitro enzyme activity are assayed using homogeneous time-resolved energy transfer (HTRF), which measures phosphorylation of a peptide substrate. The LANCE® Ultra kinase assay (PerkinElmer) uses a ULight™-labeled EIF4E-binding protein 1 (THR37/46) peptide (DYSTTPGGTLFSTTPGTRI (SEQ ID NO: 1)) substrate and a Europium-labeled anti-phospho-4E-BP1 antibody (CDK2, CDK1, CDK4, CDK6, CDK9, CDK12, CDK13) or ULight™-labeled Myelin Basic Protein peptide (VTPRTPPP (SEQ ID NO: 2)) substrate and a Europium-labeled anti-phospho-MBP antibody (CDK7). Each CDK enzyme activity assays utilized human CDK co-expressed as N-terminal GST-tagged protein with its full length cyclin partner using a baculovirus expression system.
Enzyme was pre-incubated with compounds for 30 minutes (CDK1,2,4,6,9) or 60 minutes (CDK7, CDK12, CDK13) prior to addition of ATP and Ulight-peptide (1 mM and 50 nM final, respectively), in assay buffer containing 50 mM HEPES pH 7.5, 1 mM EGTA, 10 mM MgCl2, 2 mM DTT, 0.05 mg/mL BSA, and 0.01% Tween 20. The reaction was then incubated for 60-90 minutes at room temperature. The reactions were stopped by the addition of EDTA and Europium labeled antibody, for a final concentration of 15 mM and 1.0-1.5 nM, respectively. HTRF signals were read after 15-120 minutes. A ratio of fluorescence transferred to the labeled substrate (665 nm) relative to fluorescence of the Europium donor (620 nm) represents the extent of phosphorylation. Ratios for treated wells were normalized to DMSO only (100% activity) and no enzyme (0% activity) controls. Normalized data was analyzed using a three or four parameter dose response curve to determine IC50 for each compound and are shown in Table A. Control reference inhibitors were included on each plate.

T1 sequence (Q9NYV4 whole entry): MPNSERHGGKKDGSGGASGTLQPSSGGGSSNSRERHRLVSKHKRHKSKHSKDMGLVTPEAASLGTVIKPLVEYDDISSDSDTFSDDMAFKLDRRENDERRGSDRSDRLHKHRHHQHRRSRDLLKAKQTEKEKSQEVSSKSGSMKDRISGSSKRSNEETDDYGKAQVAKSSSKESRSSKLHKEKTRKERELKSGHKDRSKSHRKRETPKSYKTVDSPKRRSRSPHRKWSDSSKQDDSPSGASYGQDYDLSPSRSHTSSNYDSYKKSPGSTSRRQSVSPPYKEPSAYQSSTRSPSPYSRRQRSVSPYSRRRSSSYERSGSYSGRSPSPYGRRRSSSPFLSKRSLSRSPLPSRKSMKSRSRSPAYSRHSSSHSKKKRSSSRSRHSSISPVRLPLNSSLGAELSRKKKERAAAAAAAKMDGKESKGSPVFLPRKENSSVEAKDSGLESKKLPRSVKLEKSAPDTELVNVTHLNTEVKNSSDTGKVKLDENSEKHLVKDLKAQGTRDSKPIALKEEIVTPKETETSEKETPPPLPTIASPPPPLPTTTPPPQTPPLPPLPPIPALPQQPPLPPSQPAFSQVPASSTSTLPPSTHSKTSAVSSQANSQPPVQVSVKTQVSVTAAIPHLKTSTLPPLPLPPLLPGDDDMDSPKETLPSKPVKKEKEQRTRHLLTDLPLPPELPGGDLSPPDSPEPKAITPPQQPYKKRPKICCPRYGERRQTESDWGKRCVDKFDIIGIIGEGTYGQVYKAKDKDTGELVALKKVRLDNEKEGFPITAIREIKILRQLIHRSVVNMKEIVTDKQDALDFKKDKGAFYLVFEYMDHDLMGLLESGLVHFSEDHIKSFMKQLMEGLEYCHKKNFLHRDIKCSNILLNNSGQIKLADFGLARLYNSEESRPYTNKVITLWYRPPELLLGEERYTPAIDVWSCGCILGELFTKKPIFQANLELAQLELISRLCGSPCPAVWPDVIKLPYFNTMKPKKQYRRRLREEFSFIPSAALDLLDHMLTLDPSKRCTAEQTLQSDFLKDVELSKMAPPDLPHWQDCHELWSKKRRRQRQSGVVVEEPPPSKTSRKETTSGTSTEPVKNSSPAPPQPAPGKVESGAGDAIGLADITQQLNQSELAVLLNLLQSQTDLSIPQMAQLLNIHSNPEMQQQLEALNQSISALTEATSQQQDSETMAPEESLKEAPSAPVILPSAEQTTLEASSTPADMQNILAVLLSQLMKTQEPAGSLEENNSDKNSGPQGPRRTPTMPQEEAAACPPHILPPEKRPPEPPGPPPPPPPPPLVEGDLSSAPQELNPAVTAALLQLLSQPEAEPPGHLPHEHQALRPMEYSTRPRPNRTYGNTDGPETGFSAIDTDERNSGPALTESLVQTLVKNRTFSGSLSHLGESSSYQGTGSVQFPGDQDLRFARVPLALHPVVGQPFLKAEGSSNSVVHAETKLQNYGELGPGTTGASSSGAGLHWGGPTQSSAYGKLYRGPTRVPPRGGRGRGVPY
T1 sequence (O75909 whole entry partner): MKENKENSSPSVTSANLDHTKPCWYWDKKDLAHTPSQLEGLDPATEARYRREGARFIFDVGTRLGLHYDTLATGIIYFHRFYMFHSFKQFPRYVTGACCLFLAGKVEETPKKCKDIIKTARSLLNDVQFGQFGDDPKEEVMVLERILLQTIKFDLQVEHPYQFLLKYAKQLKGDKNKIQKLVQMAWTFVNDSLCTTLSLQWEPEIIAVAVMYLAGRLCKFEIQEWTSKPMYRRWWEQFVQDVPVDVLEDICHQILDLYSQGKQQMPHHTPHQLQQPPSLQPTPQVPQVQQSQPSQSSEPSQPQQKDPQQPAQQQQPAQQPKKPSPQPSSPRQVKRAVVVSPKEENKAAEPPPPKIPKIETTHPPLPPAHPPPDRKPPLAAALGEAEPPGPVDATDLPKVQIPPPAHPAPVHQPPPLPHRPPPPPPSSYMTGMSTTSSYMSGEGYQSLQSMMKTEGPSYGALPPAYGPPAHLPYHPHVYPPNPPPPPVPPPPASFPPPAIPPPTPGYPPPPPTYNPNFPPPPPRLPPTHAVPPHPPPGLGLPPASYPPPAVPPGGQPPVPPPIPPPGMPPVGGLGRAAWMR

| Compound | IC50 |
| --- | --- |
| C=CC(=O)N(C)c1ccc(C(=O)N2CC[C@@H](Nc3nc4ccc(-c5cn[nH]c5)c(C(C)C)n4n3)C2)cc1 [Example 25, (R)-N-(4-(3-((5-Isopropyl-6-(1H-pyrazol-4-yl)-[1,2,4]triazolo[1,5-a]pyridin-2-yl)amino)pyrrolidine-1-carbonyl)phenyl)-N-methylacrylamide] | < 50 nM |
| C=C(F)C(=O)Nc1ccc(C(=O)N2CC[C@@H](Nc3nc4ccc(-c5cn[nH]c5)c(C(C)C)n4n3)C2)cc1 [Example 26, (R)-2-Fluoro-N-(4-(3-((5-isopropyl-6-(1H-pyrazol-4-yl)-[1,2,4]triazolo[1,5-a]pyridin-2-yl)amino)pyrrolidine-1-carbonyl)phenyl)acrylamide] | < 50 nM |
| C=CC(=O)Nc1ccc2sc(N3CCC[C@@H](Nc4nc5ccc(-c6cn[nH]c6)c(C(C)C)n5n4)C3)nc2c1 [Example 27, (R)-N-(2-(3-((5-Isopropyl-6-(1H-pyrazol-4-yl)-[1,2,4]triazolo[1,5-a]pyridin-2-yl)amino)piperidin-1-yl)benzo[d]thiazol-5-yl)acrylamide] | < 50 nM |
| C=CC(=O)Nc1ccc2c(c1)nc(N1CCC[C@@H](Nc3nc4ccc(-c5cn[nH]c5)c(C(C)C)n4n3)C1)n2C [Example 28, (R)-N-(2-(3-((5-Isopropyl-6-(1H-pyrazol-4-yl)-[1,2,4]triazolo[1,5-a]pyridin-2-yl)amino)piperidin-1-yl)-1-methyl-1H-benzo[d]imidazol-5-yl)acrylamide] | < 50 nM |
| C=CC(=O)Nc1ccc2sc(N3CCC[C@@H](Nc4nc5ccc(-c6cn[nH]c6)c(C)n5n4)C3)nc2c1 [Example 29, (R)-N-(2-(3-((5-Methyl-6-(1H-pyrazol-4-yl)-[1,2,4]triazolo[1,5-a]pyridin-2-yl)amino)piperidin-1-yl)benzo[d]thiazol-5-yl)acrylamide] | < 50 nM |
| C=CC(=O)Nc1ccc(C(=O)N2CC[C@@H](Nc3nc4ccc(-c5cn[nH]c5)c(C(F)(F)F)n4n3)C2)cc1 [Example 30, (R)-N-(4-(3-((6-(1H-Pyrazol-4-yl)-5-(trifluoromethyl)-[1,2,4]triazolo[1,5-a]pyridin-2-yl)amino)pyrrolidine-1-carbonyl)phenyl)acrylamide] | < 50 nM |
| C=C(F)C(=O)Nc1ccc(C(=O)N2CC[C@@H](Nc3nc4cc(-c5cn[nH]c5)ccn4n3)C2)cc1 [Example 31, (R)-N-(4-(3-((7-(1H-Pyrazol-4-yl)-[1,2,4]triazolo[1,5-a]pyridin-2-yl)amino)pyrrolidine-1-carbonyl)phenyl)-2-fluoroacrylamide] | < 50 nM |
| C=C(F)C(=O)Nc1ccc(C(=O)N2CC[C@@H](Nc3nc4c(C)c(-c5cn[nH]c5)ccn4n3)C2)cc1 [Example 32, (R)-2-Fluoro-N-(4-(3-((8-methyl-7-(1H-pyrazol-4-yl)-[1,2,4]triazolo[1,5-a]pyridin-2-yl)amino)pyrrolidine-1-carbonyl)phenyl)acrylamide] | < 50 nM |
| CC#CC(=O)Nc1ccc(C(=O)N2CC[C@@H](Nc3nc4c(C)c(-c5cn[nH]c5)ccn4n3)C2)cc1 [Example 33, (R)-N-(4-(3-((8-Methyl-7-(1H-pyrazol-4-yl)-[1,2,4]triazolo[1,5-a]pyridin-2-yl)amino)pyrrolidine-1-carbonyl)phenyl)but-2-ynamide] | < 50 nM |
| C=CC(=O)Nc1ccc2c(c1)C(=O)N([C@H]1CCC[C@@H](Nc3nc4ccc(-c5cn[nH]c5)c(C(F)(F)F)n4n3)C1)C2 [Example 34, N-(2-((1S,3R)-3-((6-(1H-pyrazol-4-yl)-5-(trifluoromethyl)-[1,2,4]triazolo[1,5-a]pyridin-2-yl)amino)cyclohexyl)-3-oxoisoindolin-5-yl)acrylamide] | < 50 nM |
| C=CC(=O)Nc1ccc2sc(N3CCC[C@@H](Nc4nc5ccc(-c6cn[nH]c6)c(C(F)(F)F)n5n4)C3)nc2c1 [Example 35, (R)-N-(2-(3-((6-(1H-pyrazol-4-yl)-5-(trifluoromethyl)-[1,2,4]triazolo[1,5-a]pyridin-2-yl)amino)piperidin-1-yl)benzo[d]thiazol-5-yl)acrylamide] | < 50 nM |
| C=CC(=O)Nc1ccc2c(c1)nc(N1CCC[C@@H](Nc3nc4ccc(-c5cn[nH]c5)c(C(F)(F)F)n4n3)C1)n2C [Example 36, (R)-N-(2-(3-((6-(1H-pyrazol-4-yl)-5-(trifluoromethyl)-[1,2,4]triazolo[1,5-a]pyridin-2-yl)amino)piperidin-1-yl)-1-methyl-1H-benzo[d]imidazol-5-yl)acrylamide] | < 50 nM |
| C=CC(=O)Nc1cnc(N2CCC[C@@H](Nc3nc4ccc(-c5cn[nH]c5)c(C(C)C)n4n3)C2)c(C)c1 [Example 37, (R)-N-(6-(3-((5-isopropyl-6-(1H-pyrazol-4-yl)-[1,2,4]triazolo[1,5-a]pyridin-2-yl)amino)piperidin-1-yl)-5-methylpyridin-3-yl)acrylamide] | < 50 nM |
| C=CC(=O)Nc1cnc(N2CCC[C@@H](Nc3nc4ccc(-c5cn[nH]c5)c(C(F)(F)F)n4n3)C2)c(C)c1 [Example 38, (R)-N-(6-(3-((6-(1H-pyrazol-4-yl)-5-(trifluoromethyl)-[1,2,4]triazolo[1,5-a]pyridin-2-yl)amino)piperidin-1-yl)-5-methylpyridin-3-yl)acrylamide] | < 50 nM |
